The text below walks through data of US10793543B2, “Selective C-KIT kinase inhibitor” (PRECEDO PHARMACEUTICALS CO., LTD, priority 2016, dated 2020).

Data set [1] concerns Tel-cKit/V559D-BaF3 cells (KIT V559D). Briefly: Cell proliferation, CCK-8, Tel-cKit/V559D-BaF3. Format: cell-based. The conditions noted are these: Mus musculus, 72 hours. The text has this:
(§1) In addition, in the present example, further uses: mouse P210/BaF3 (stably expressing P210 Bcr-Abl mutant gene), mouse Tel-ABL-BaF3 (stably expressing wild-type ABL kinase), mouse Tel-cKit-BaF3 (stably expressing C-KITwild-type kinase), mouse Tel-cKit/V559D-BaF3 (stably expressing C-KIT V559D mutant kinase), mouse Tel-cKit/V559D/V654A-BaF3 (stably expressing C-KIT V559D/V654A mutant kinase), mouse Tel-cKit/N822K-BaF3 (stably expressing C-KIT N822K mutant kinase), mouse Tel-cKit/V654A-BaF3 (stably expressing C-KIT V654A mutant kinase), mouse Tel-cKit/L567P-BaF3 (stably expressing C-KIT L567P mutant kinase), mouse Tel-cKit/T670I-BaF3 (stably expressing C-KIT T670I mutant kinase), mouse Tel-PDGFRα-BaF3 (stably expressing PDGFRα kinase), mouse Tel-PDGFRβ-BaF3 (stably expressing PDGFRβ kinase), mouse Tel-VEGFR2-BaF3 (stably expressing VEGFR2 kinase), mouse Tel-RET-BaF3 (stably expressing RET kinase). The above cell lines were all constructed by our laboratory according to the following method: the kinase region sequences of human P210 Bcr-Abl, ABL, C-KIT, C-KIT V559D, C-KIT V559D/V654A, C-KIT N822K, C-KIT V654A, C-KIT L567P, C-KIT T670I, PDGFRα, PDGFRβ, VEGFR2, RET were amplified respectively by PCR, inserted respectively into MSCV-Puro vectors harboring N-terminal TEL fragment and/or NPM fragment and/or TPR fragment (Clontech), then the vectors were stably transfected into mouse BaF3 cells by retrovirus methods and growth factor IL-3 was removed, eventually obtaining cell lines that are transferred protein (P210 Bcr-Abl, ABL, C-KIT, C-KIT V559D, C-KIT V559D/V654A, C-KIT N822K, C-KIT V654A, C-KIT L567P, C-KIT T670I, PDGFRα, PDGFRβ, VEGFR2, RET)-dependent.
(§2) The cells were incubated for 72 hours, and then the number of viable cells was quantified with a microplate reader by using CCK-8 Cell Viability Assay Kit (purchased from Bestbio Company, Shanghai, China) (CCK-8 can be reduced by dehydrogenase in living cells to a highly water-soluble yellow formazan product, and the amount of formazan produced is proportional to the number of living cells).

Data set [2] has as its system K562 cells (P210 Bcr-Abl). Put plainly: Cancer cell proliferation, CCK-8, K562. The conditions noted are these: Homo sapiens; K562, P210 Bcr-Abl, 72 hours, CCK-8; read-out: GI50. Format: cell-based.
Excerpt: (§3) In the present example, the following cells were used: chronic myelogenous leukemia cells K562 (expressing P210 Bcr-Abl mutant gene), human megakaryocytic leukemia cells MEG-01 (expressing P210 Bcr-Abl mutant gene), human peripheral blood basophilic leukemia cells Ku812 (expressing Bcr-Abl mutant gene) (all above cells purchased from ATCC, USA), human gastrointestinal stromal tumor cell lines GIST-T1 cells (expressing wild-type C-KIT gene) (purchased from Cosmo Bio Co., Ltd., Japan), human gastrointestinal stromal tumor cell lines GIST-882 cells (expressing wild-type C-KIT gene) (presented by the Professor Gray Lab, Dana-Farber Cancer Institute, Harvard University, USA), mouse pro-B cells BaF3 (purchased from ATCC, USA).
as §2

Data set [3] concerns Tel-cKit/N822K-BaF3 cells (KIT N822K). Put plainly: Cell proliferation, CCK-8, Tel-cKit/N822K-BaF3. In kind it is cell-based. The conditions noted are these: Mus musculus, 72 hours.
Excerpt: as §1, §2

For the next data set, the system named is Ku812 cells (Bcr-Abl). Briefly: Cancer cell proliferation, CCK-8, Ku812. The conditions noted are these: Homo sapiens; Ku812, Bcr-Abl, 72 hours, CCK-8; read-out: GI50. Format: cell-based.
Excerpt: as §3, §2

For data set [4], the system named is Tel-cKit-BaF3 cells (KIT WT). Briefly: Cell proliferation, CCK-8, Tel-cKit-BaF3. Format: cell-based. The conditions noted are these: Mus musculus, 72 hours.
Excerpt: as §1, §2

Data set [5] can be described thus: Acute toxicity assay in mice, single oral gavage. The conditions noted are these: for Number of death (number of death/number of animals in each group): female mice, 7 days observation. In kind it is in vivo. As to the method: 1. 4-6 week-old Bal b/c female mice were purchased from Shanghai SLAC Experimental Animal Co., Ltd., and were raised in a SPF-level laboratory. Drinking water and padding were both subjected to aseptic processing via high-pressure disinfection, and all operations of the mice were conducted under aseptic conditions; 10 healthy mice were selected, and were balanced and randomly divided into 5 groups according to their weights.
2. Specific Information for Administration
Route of administration: oral gavage
Observation period: 7 days.
3. Observation Indicators
Weighing frequency: upon grouping, the day of administration (D0) to the seventh day after administration (D7). Based on the mouse weight on D0 (starting value of 100%), the graph of the relative body weight over time was plotted.
3.2. Clinical Symptoms Observation
Strict observation was carried out within 4 hours after administration, and then observation was carried out twice a day for a total of 7 days. Observation was carried out and abnormal symptoms or phenomena in each of animals were recorded.
The number of animals died in each of dosage groups during the observation period.
Comprehensive determination was performed based on animal mortality, clinical symptoms and body weights.

In data set [6] the test system is MEG-01 cells (P210 Bcr-Abl). Put plainly: Cancer cell proliferation, CCK-8, MEG-01. In kind it is cell-based. The conditions noted are these: Homo sapiens; MEG-01, P210 Bcr-Abl, 72 hours, CCK-8; read-out: GI50.
Excerpt: as §3, §2

With `Cc1ccc(NC(=O)c2cccc(C(F)(F)F)c2)cc1OC1CCN(C(=O)c2ccncc2)CC1` [Compound 4], the GI50 (as a rule, the concentration that inhibits growth by half) was 40 nM in data set [1]; over 10000 nM in data set [2]; 940 nM in data set [3]; 6710 nM in the data set on Ku812 cells (Bcr-Abl); 190 nM in data set [4]; 7430 nM in data set [6]. In addition, the “Number of death (number of death/number of animals in each group)” value in data set [5] (250 mg/kg single oral gavage), in data set [5] (500 mg/kg single oral gavage), in data set [5] (1000 mg/kg single oral gavage) and in data set [5] (2000 mg/kg single oral gavage) was “♀: 0/2:” throughout. The “effect on mouse weight” value was “no significant effect on mouse weight” in data set [5] (1000 mg/kg single oral gavage) and “decreased slightly” in data set [5] (2000 mg/kg single oral gavage). Moreover, the “mouse organs on dissection” value in data set [5] (dissected after 7 days, single oral gavage) is “no obvious abnormalities”. Further, the “mice died” value in data set [5] (mouse, in vivo) was “no mouse died”. In data set [5] (mouse, single oral gavage), this compound came in with a maximum tolerated dosage of 2000 mg/kg.
